Laboratory results taken from US11178868B2, “Alkynyl-substituted 3-phenylpyrrolidine-2,4-diones and use thereof as herbicides” (Bayer CropScience Aktiengesellschaft, priority 2015, dated 2021).

Tests used:
Assay type in all cases: in vivo
Alopecurus myosuroides [1] = experiment: Pre-emergence herbicidal effect; settings: scored visually after 3 weeks
Description: (§1) Seeds of monocotyledonous and dicotyledonous weed plants and crop plants are laid out in wood-fibre pots in sandy loam and covered with soil. The compounds according to the invention formulated in the form of wettable powders (WP) or as emulsion concentrates (EC) are then applied as aqueous suspension or emulsion at a water application rate of 600 to 800 I/ha (converted) with the addition of 0.2% wetting agent to the surface of the covering soil. After the treatment, the pots are placed in a greenhouse and kept under good growth conditions for the trial plants. The damage to the test plants is scored visually after a test period of 3 weeks by comparison with untreated controls (herbicidal activity in percent (%): 100% activity=the plants have died, 0% activity=like control plants).

Avena fatua [2] = experiment: Pre-emergence herbicidal effect; settings: scored visually after 3 weeks
Description: as §1

Echinochloa crus-galli [3] = experiment: Pre-emergence herbicidal effect; settings: scored visually after 3 weeks
Description: as §1

Lolium multiflorum [4] = experiment: Pre-emergence herbicidal effect; settings: scored visually after 3 weeks
Description: as §1

Setaria viridis [5] = experiment: Pre-emergence herbicidal effect; settings: scored visually after 3 weeks
Description: as §1

Echinochloa crus-galli [6] = experiment: Post-emergence herbicidal effect; settings: assessed visually after about 3 weeks
Experimental: (§2) Seeds of monocotyledonous and dicotyledonous weed and crop plants are laid out in sandy loam in wood-fibre pots, covered with soil and cultivated in a greenhouse under good growth conditions. 2 to 3 weeks after sowing, the test plants are treated at the one-leaf stage. The compounds according to the invention, formulated in the form of wettable powders (WP) or as emulsion concentrates (EC), are then sprayed as aqueous suspension or emulsion at a water application rate of 600 to 800 I/ha (converted) with the addition of 0.2% of wetting agent onto the green parts of the plants. After the test plants have been left to stand in the greenhouse under optimal growth conditions for about 3 weeks, the action of the preparations is assessed visually in comparison to untreated controls (herbicidal action in percent (%): 100% activity=the plants have died, 0% activity=like control plants).

Alopecurus myosuroides [7] = experiment: Post-emergence herbicidal effect; settings: assessed visually after about 3 weeks
Experimental: as §2

Lolium multiflorum [8] = experiment: Post-emergence herbicidal effect; settings: 80 g a.i./ha, assessed visually after about 3 weeks
Experimental: as §2

Setaria viridis [9] = experiment: Post-emergence herbicidal effect; settings: assessed visually after about 3 weeks
Experimental: as §2

Avena fatua [10] = experiment: Post-emergence herbicidal effect; settings: assessed visually after about 3 weeks
Experimental: as §2

Row | SMILES | Herbicidal effect against [%] ALOMY (Alopecurus myosuroides [1]; 80 g a.i./ha) | Herbicidal effect against [%] ALOMY (Alopecurus myosuroides [1]; 320 g a.i./ha) | Herbicidal effect against [%] AVEFA (Avena fatua [2]; 80 g a.i./ha) | Herbicidal effect against [%] AVEFA (Avena fatua [2]; 320 g a.i./ha) | Herbicidal effect against [%] ECHCG (Echinochloa crus-galli [3]; 80 g a.i./ha) | Herbicidal effect against [%] ECHCG (Echinochloa crus-galli [3]; 320 g a.i./ha) | Herbicidal effect against [%] LOLMU (Lolium multiflorum [4]; 80 g a.i./ha) | Herbicidal effect against [%] LOLMU (Lolium multiflorum [4]; 320 g a.i./ha) | Herbicidal effect against [%] SETVI (Setaria viridis [5]; 80 g a.i./ha) | Herbicidal effect against [%] SETVI (Setaria viridis [5]; 320 g a.i./ha) | Herbicidal effect against [%] ECHCG (Echinochloa crus-galli [6]; 80 g a.i./ha) | Herbicidal effect against [%] ALOMY (Alopecurus myosuroides [7]; 20 g a.i./ha) | Herbicidal effect against [%] ALOMY (Alopecurus myosuroides [7]; 80 g a.i./ha) | Herbicidal effect against [%] ECHCG (Echinochloa crus-galli [6]; 20 g a.i./ha) | Herbicidal effect against [%] LOLMU (Lolium multiflorum [8]) | Herbicidal effect against [%] SETVI (Setaria viridis [9]; 20 g a.i./ha) | Herbicidal effect against [%] SETVI (Setaria viridis [9]; 80 g a.i./ha) | Herbicidal effect against [%] AVEFA (Avena fatua [10]; 20 g a.i./ha) | Herbicidal effect against [%] AVEFA (Avena fatua [10]; 80 g a.i./ha)
1 | CC#Cc1cc(CC)c(C2=C(OC(=O)OCC)C3(CCCC(OCC)C3)NC2=O)c(CC)c1 (single isomer, unassigned) [Example P2] | 100% | 100% | 100% | 100% | 100% | 100% | 100% | 100% | 100% | 100% | 80% |  |  |  |  |  |  |  | 
2 | CC#Cc1cc(CC)c(C2=C(O)C3(CCCC(OCC)C3)NC2=O)c(CC)c1 (centres unmarked) [Example D1] | 100% | 100% | 80% | 100% | 100% | 100% | 100% | 100% | 100% | 100% | 100% | 80% | 100% | 100% | 90% | 90% | 100% |  | 
3 | CC#Cc1cc(C)c(C2=C(O)C3(CCCC(OCC)C3)NC2=O)c(C)c1 (centres unmarked) [Example D2] | 100% | 100% | 80% | 100% | 100% | 100% | 100% | 100% | 100% | 100% | 100% |  | 90% | 90% | 100% |  | 90% |  | 
4 | C#Cc1cc(CC)c(C2=C(O)C3(CCCC(OCCOC)C3)NC2=O)c(CC)c1 (centres unmarked) [Example D10] | 90% | 100% | 90% | 100% | 100% | 100% |  |  | 100% | 100% | 90% | 90% | 90% | 90% |  |  |  | 80% | 90%
5 | CC#Cc1cc(CC)c(C2=C(OC(=O)C(C)C)C3(CCCC(OCC)C3)NC2=O)c(CC)c1 (centres unmarked) [Example P3] | 90% | 100% |  | 80% | 100% | 100% | 100% | 100% | 100% | 100% | 90% |  |  |  |  |  |  |  | 
6 | C#Cc1cc(C)c(C2=C(OC(=O)OCC)C3(CCCC(OCCCC)C3)NC2=O)c(C)c1 (centres unmarked) [Example P5] | 80% | 100% |  | 80% | 90% | 100% | 90% | 100% | 90% | 100% |  |  |  |  |  |  |  |  | 
7 | C#Cc1cc(C)c(C2=C(OC(=O)C(C)C)C3(CCCC(OCCCC)C3)NC2=O)c(C)c1 (centres unmarked) [Example P6] |  | 80% |  |  |  | 90% |  | 100% |  | 100% |  |  |  |  |  |  |  |  | 
